Reference: patent publication US11162944B2, “Compositions and methods” (priority 2015, dated 2021)
Where two headings read alike, the source gives them in different places. Marks after values point to notes of the source that are not given here.

Key:
[1] = system: biomarker (antibody) in serum samples from patients with symptoms of tuberculosis; format: binding, human
wild-type BMDCs = experiment: IL-6 secretion by bone marrow-derived dendritic cells, cytokine-specific ELISA; format: cell-based, mice; conditions: antigens at 100 μg/ml coated on plate, ISO as solvent, FIG. 1
Description: The concentrations of cytokines in the cell-free medium from stimulation of bone marrow-derived dendritic cells were determined using standard cytokine-specific ELISA. BMDCs were generated from mice, by flushing out the femurs of mice into complete medium and pipetting vigorously to make a single-cell suspension. The glycolipids were coated to the bottom of 96 micro-well plates (100 μg/ml). BMDCs were added, and after 6 or 48 hours of incubation the supernatants were harvested.
The first experiment was the IL-6 secretion by wild-type BMDCs from mice using compounds B, D, C and H (shown below) as antigens at 100 μg/ml, and isopropyl alcohol (ISO) as a solvent. Commercial trehalose-6,6-dimycolate (TDM), lipopolysaccharides (LPS), and trehalose-6,6-dibehenate (TDB) were used as a controls.

CCCCCCCCCCCCCCCCCCCCCCCC[C@@H](C(=O)OC[C@H]1O[C@H](OC)[C@@H](O)[C@@H]1O)[C@H](O)CCCCCCCCCCCCCCCCC[C@@H]1C[C@@H]1CCCCCCCCCCCCCCCC[C@@H](OC)[C@@H](C)CCCCCCCCCCCCCCCCCC [Antigen B]
ELISA absorbance at 492 nm ([1]; serum sample 1 TB+): 0.48*
ELISA absorbance at 492 nm ([1]; serum sample 2 TB+): 0.54*
ELISA absorbance at 492 nm ([1]; serum sample 3 TB+): 1.10*
ELISA absorbance at 492 nm ([1]; serum sample 4 TB+): 1.00*
ELISA absorbance at 492 nm ([1]; serum sample 5 TB+): 0.45*
ELISA absorbance at 492 nm ([1]; serum sample 6 TB+): 0.97*
ELISA absorbance at 492 nm ([1]; serum sample 7 TB+): 0.87*
ELISA absorbance at 492 nm ([1]; serum sample 8 TB+): 0.97*
ELISA absorbance at 492 nm ([1]; serum sample 9 TB+): 0.62*
ELISA absorbance at 492 nm ([1]; serum sample 10 TB−): 0.56*
ELISA absorbance at 492 nm ([1]; serum sample 11 TB−): 0.64*
ELISA absorbance at 492 nm ([1]; serum sample 12 TB−): 0.44
ELISA absorbance at 492 nm ([1]; serum sample 13 TB−): 0.56*
ELISA absorbance at 492 nm ([1]; serum sample 14 TB−): 0.91*
ELISA absorbance at 492 nm ([1]; serum sample 15 TB−): 0.53*
ELISA absorbance at 492 nm ([1]; serum sample 16 TB−): 0.52*
ELISA absorbance at 492 nm ([1]; serum sample 17 TB−): 0.87*
ELISA absorbance at 492 nm ([1]; serum sample 18 TB−): 0.44
ELISA absorbance at 492 nm ([1]; serum sample 19 TB−): 0.53*
ELISA absorbance at 492 nm ([1]; serum sample 20 TB−): 0.63*
ELISA absorbance at 492 nm ([1]; serum sample 21 TB−): 0.42
ELISA absorbance at 492 nm ([1]; serum sample 22 TB−): 0.33
ELISA absorbance at 492 nm ([1]; serum sample 23 TB−): 0.48*
ELISA absorbance at 492 nm ([1]; serum sample 24 TB−): 0.81*
ELISA absorbance at 492 nm ([1]; serum sample 25 TB−): 0.23
ELISA absorbance at 492 nm ([1]; serum sample 26 TB−): 0.64*
ELISA absorbance at 492 nm ([1]; serum sample 27 TB−): 0.60*
ELISA absorbance at 492 nm ([1]; serum sample 28 TB−): 0.42
ELISA absorbance at 492 nm ([1]; serum sample 29 TB−): 0.39
ELISA absorbance at 492 nm ([1]; serum sample 30 TB−): 0.41
ELISA absorbance at 492 nm ([1]; serum sample 31 TB−): 0.37
ELISA absorbance at 492 nm ([1]; serum sample 32 TB−): 0.68*
ELISA absorbance at 492 nm ([1]; serum sample 33 TB−): 0.36
ELISA absorbance at 492 nm ([1]; serum sample 34 TB−): 0.47*
ELISA absorbance at 492 nm ([1]; serum sample 35 TB−): 0.38
ELISA absorbance at 492 nm ([1]; serum sample 36 TB−): 0.28
ELISA absorbance at 492 nm ([1]; serum sample 37 TB−): 0.40
ELISA absorbance at 492 nm ([1]; serum sample 38 TB−): 0.44
ELISA absorbance at 492 nm ([1]; serum sample 39 TB−): 0.31
ELISA absorbance at 492 nm ([1]; serum sample 40 TB−): 0.28
ELISA absorbance at 492 nm ([1]; serum sample 41 TB−): 0.51*
ELISA absorbance at 492 nm ([1]; serum sample 42 TB−): 0.49*
ELISA absorbance at 492 nm ([1]; serum sample 43 TB−): 0.28
ELISA absorbance at 492 nm ([1]; serum sample 44 TB−): 0.60*
ELISA absorbance at 492 nm ([1]; serum sample 45 TB−): 0.34
ELISA absorbance at 492 nm ([1]; serum sample 46 TB−): 0.27
ELISA absorbance at 492 nm ([1]; serum sample 47 TB−): 0.35
ELISA absorbance at 492 nm ([1]; serum sample 48 TB−): 0.29
ELISA absorbance at 492 nm ([1]; serum sample 49 TB−): 0.47*
ELISA absorbance at 492 nm ([1]; serum sample 50 TB−): 0.31
ELISA absorbance at 492 nm ([1]; serum sample 51 TB−): 0.22
ELISA absorbance at 492 nm ([1]; serum sample 52 TB−): 0.28
ELISA absorbance at 492 nm ([1]; serum sample 53 TB−): 0.24
ELISA absorbance at 492 nm ([1]; serum sample 54 TB−): 0.25
ELISA absorbance at 492 nm ([1]; serum sample 55 TB−): 0.27
ELISA absorbance at 492 nm ([1]; serum sample 56 TB−): 0.42
ELISA absorbance at 492 nm ([1]; serum sample 57 TB−): 0.40
ELISA absorbance at 492 nm ([1]; serum sample 58 TB−): 0.32
ELISA absorbance at 492 nm ([1]; serum sample 59 TB−): 0.30
ELISA absorbance at 492 nm ([1]; serum sample 60 TB−): 0.36
ELISA absorbance at 492 nm ([1]; serum sample 61 TB−): 0.36
ELISA absorbance at 492 nm ([1]; serum sample 62 TB−): 0.26
ELISA absorbance at 492 nm ([1]; serum sample 63 TB−): 0.21
ELISA absorbance at 492 nm ([1]; serum sample 64 TB−): 2.33*
IL-6 secretion by wild-type BMDCs (wild-type BMDCs): good level of stimulation

CCCCCCCCCCCCCCCCCCCCCC[C@@H](C(=O)OC[C@H]1O[C@H](OC)[C@@H](O)[C@@H]1O)[C@H](O)CCCCCCCCCCCCCCC[C@@H]1C[C@@H]1CCCCCCCCCCCCCCCCCCC(=O)C(C)CCCCCCCCCCCCCCCCCC (stereo partly shown) [Antigen C]
ELISA absorbance at 492 nm ([1]; serum sample 1 TB+): 0.33*
ELISA absorbance at 492 nm ([1]; serum sample 2 TB+): 0.26*
ELISA absorbance at 492 nm ([1]; serum sample 3 TB+): 0.44*
ELISA absorbance at 492 nm ([1]; serum sample 4 TB+): 0.48*
ELISA absorbance at 492 nm ([1]; serum sample 5 TB+): 0.40*
ELISA absorbance at 492 nm ([1]; serum sample 6 TB+): 0.39*
ELISA absorbance at 492 nm ([1]; serum sample 7 TB+): 1.37*
ELISA absorbance at 492 nm ([1]; serum sample 8 TB+): 0.46*
ELISA absorbance at 492 nm ([1]; serum sample 9 TB+): 0.35*
ELISA absorbance at 492 nm ([1]; serum sample 10 TB−): 0.22
ELISA absorbance at 492 nm ([1]; serum sample 11 TB−): 0.20
ELISA absorbance at 492 nm ([1]; serum sample 12 TB−): 0.18
ELISA absorbance at 492 nm ([1]; serum sample 13 TB−): 0.24
ELISA absorbance at 492 nm ([1]; serum sample 14 TB−): 0.56*
ELISA absorbance at 492 nm ([1]; serum sample 15 TB−): 0.22
ELISA absorbance at 492 nm ([1]; serum sample 16 TB−): 0.30*
ELISA absorbance at 492 nm ([1]; serum sample 17 TB−): 0.57*
ELISA absorbance at 492 nm ([1]; serum sample 18 TB−): 0.32*
ELISA absorbance at 492 nm ([1]; serum sample 19 TB−): 0.20
ELISA absorbance at 492 nm ([1]; serum sample 20 TB−): 0.41*
ELISA absorbance at 492 nm ([1]; serum sample 21 TB−): 0.41*
ELISA absorbance at 492 nm ([1]; serum sample 22 TB−): 0.31*
ELISA absorbance at 492 nm ([1]; serum sample 23 TB−): 0.27*
ELISA absorbance at 492 nm ([1]; serum sample 24 TB−): 0.53*
ELISA absorbance at 492 nm ([1]; serum sample 25 TB−): 0.24
ELISA absorbance at 492 nm ([1]; serum sample 26 TB−): 0.90*
ELISA absorbance at 492 nm ([1]; serum sample 27 TB−): 0.46*
ELISA absorbance at 492 nm ([1]; serum sample 28 TB−): 0.42*
ELISA absorbance at 492 nm ([1]; serum sample 29 TB−): 0.38*
ELISA absorbance at 492 nm ([1]; serum sample 30 TB−): 0.39*
ELISA absorbance at 492 nm ([1]; serum sample 31 TB−): 0.51*
ELISA absorbance at 492 nm ([1]; serum sample 32 TB−): 1.01*
ELISA absorbance at 492 nm ([1]; serum sample 33 TB−): 0.33*
ELISA absorbance at 492 nm ([1]; serum sample 34 TB−): 0.52*
ELISA absorbance at 492 nm ([1]; serum sample 35 TB−): 0.55*
ELISA absorbance at 492 nm ([1]; serum sample 36 TB−): 0.25
ELISA absorbance at 492 nm ([1]; serum sample 37 TB−): 0.43*
ELISA absorbance at 492 nm ([1]; serum sample 38 TB−): 0.43*
ELISA absorbance at 492 nm ([1]; serum sample 39 TB−): 0.34*
ELISA absorbance at 492 nm ([1]; serum sample 40 TB−): 0.26*
ELISA absorbance at 492 nm ([1]; serum sample 41 TB−): 0.44*
ELISA absorbance at 492 nm ([1]; serum sample 42 TB−): 0.42*
ELISA absorbance at 492 nm ([1]; serum sample 43 TB−): 0.32*
ELISA absorbance at 492 nm ([1]; serum sample 44 TB−): 1.32*
ELISA absorbance at 492 nm ([1]; serum sample 45 TB−): 0.49*
ELISA absorbance at 492 nm ([1]; serum sample 46 TB−): 0.28*
ELISA absorbance at 492 nm ([1]; serum sample 47 TB−): 0.56*
ELISA absorbance at 492 nm ([1]; serum sample 48 TB−): 0.55*
ELISA absorbance at 492 nm ([1]; serum sample 49 TB−): 0.79*
ELISA absorbance at 492 nm ([1]; serum sample 50 TB−): 0.38*
ELISA absorbance at 492 nm ([1]; serum sample 51 TB−): 0.18
ELISA absorbance at 492 nm ([1]; serum sample 52 TB−): 0.32*
ELISA absorbance at 492 nm ([1]; serum sample 53 TB−): 0.21
ELISA absorbance at 492 nm ([1]; serum sample 54 TB−): 0.26*
ELISA absorbance at 492 nm ([1]; serum sample 55 TB−): 0.31*
ELISA absorbance at 492 nm ([1]; serum sample 56 TB−): 0.90*
ELISA absorbance at 492 nm ([1]; serum sample 57 TB−): 0.55*
ELISA absorbance at 492 nm ([1]; serum sample 58 TB−): 0.44*
ELISA absorbance at 492 nm ([1]; serum sample 59 TB−): 0.65*
ELISA absorbance at 492 nm ([1]; serum sample 60 TB−): 0.62*
ELISA absorbance at 492 nm ([1]; serum sample 61 TB−): 0.76*
ELISA absorbance at 492 nm ([1]; serum sample 62 TB−): 0.19
ELISA absorbance at 492 nm ([1]; serum sample 63 TB−): 0.26*
ELISA absorbance at 492 nm ([1]; serum sample 64 TB−): 0.37*
IL-6 secretion by wild-type BMDCs (wild-type BMDCs): no significant stimulation
